Data set [1] can be described thus: Tissue accumulation (Kp,uu) of TKIs in rat kidney slices. In kind it is in vitro ADME. To be noted: male, Wistar, rat kidney slices (0.3 mm thick), pH 7.4, TKI 1 μM, 120 min, C/M ratio 37 °C / 4 °C, mean ± S.E.M. (n = 3 or 4). Here is the method: Male Wistar rats (180 ± 10 g body weight) were purchased from Japan SLC (Hamamatsu, Japan). Rats were housed three per cage with free access to commercial chow and tap water, and were maintained on a 12 h dark/light cycle in an air-controlled room (temperature, 24.0 ± 1 °C; humidity, 55 ± 5%).
Uptake study by rat kidney slices was carried out as described previously, with slight modifications. Whole kidneys of male rats were sliced (0.3 mm thick) with a microslicer (Zero 1; Dosaka EM, Kyoto, Japan). […] Three or four slices per rat, each weighing 5 to 20 mg, were randomly selected and pre-incubated in a 12-well plate with 2.0 ml/well of oxygenated transport buffer at 37 °C for 5 min. After pre-incubation, the kidney slices were placed in transport buffer containing TKIs to initiate the uptake reaction. After uptake at 37 °C for an appropriate time, each slice was rapidly removed from the transport buffer, washed twice in ice-cold transport buffer, blotted on filter paper and weighed. Non-specific adsorption of each substrate was estimated as the absorption on a slice incubated at 4 °C for 1 min. The tissue accumulation of TKIs was measured by liquid chromatography-tandem mass spectrometry (LC-MS/MS) as described below.
The unbound renal proximal tubule epithelial cell-to-medium concentration ratio (Kp,uu) based on the steady-state uptake at 37 °C and 4 °C was defined according to Eq. (4);4 Kp,uu=C/Mratioss,37 °C/C/Mratioss,4 °C
Kp,uu was calculated by dividing C/Mratioss,37 °C by the mean value of C/Mratioss,4 °C .

Another data set concerns OCT2 and MATE1. The note with it: for Prediction of SCr increase, Cmax,u: based on Cmax,u (Kp,uu assumed 1), mean ± S.D. (n = 11 subjects' parameters from ref 10); for Prediction of SCr increase, Cmax,u · Kp,uu: based on Cmax,u with Kp,uu incorporated; for Prediction of SCr increase, Cmax,u · Kp,uu / Prediction of SCr increase, Ctrough,u / Prediction of SCr increase, Ctrough,u · Kp,uu: mean ± S.D. (n = 11); for Prediction of SCr increase, Ctrough,u: based on Ctrough,u (Kp,uu assumed 1); for Prediction of SCr increase, Ctrough,u · Kp,uu: based on Ctrough,u with Kp,uu incorporated. From the text:
In this model, the intrinsic clearances of OCT2 and MATE1 were assumed to be equal. When MATE1 inhibition was predicted from the Cmax,u of drugs, Kp,uu was assumed to be 1.

The next data set concerns the target T1, human OCT2 (Homo sapiens, UniProt O15244).
T1 construct: expressed in transfected cells; host or cells: HEK293
T1 sequence (O15244 1-555): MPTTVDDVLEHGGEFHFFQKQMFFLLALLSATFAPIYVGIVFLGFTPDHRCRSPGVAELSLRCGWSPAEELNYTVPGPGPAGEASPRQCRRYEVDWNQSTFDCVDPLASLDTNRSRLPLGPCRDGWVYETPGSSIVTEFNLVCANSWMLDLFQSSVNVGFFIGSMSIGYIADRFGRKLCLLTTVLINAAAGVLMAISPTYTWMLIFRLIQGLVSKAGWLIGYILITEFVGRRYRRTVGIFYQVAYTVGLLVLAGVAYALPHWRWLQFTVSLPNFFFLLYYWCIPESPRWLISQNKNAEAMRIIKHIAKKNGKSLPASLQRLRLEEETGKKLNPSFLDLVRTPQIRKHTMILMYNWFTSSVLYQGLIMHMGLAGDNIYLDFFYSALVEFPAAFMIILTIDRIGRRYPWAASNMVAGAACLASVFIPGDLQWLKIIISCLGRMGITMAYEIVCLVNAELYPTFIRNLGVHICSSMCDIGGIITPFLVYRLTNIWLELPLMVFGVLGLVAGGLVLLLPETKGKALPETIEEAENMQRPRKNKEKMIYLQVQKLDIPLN
In words: Inhibition of [14C]creatinine uptake by HEK293/OCT2 cells. In kind it is cell-based. The note with it: for IC50: 37 °C, pre/co-incubation, unit inferred, read-out: IC50 or Ki, OCT2.

Details of data set [2]: method as in earlier work. The note with it: 34-43 (per drug), cited from earlier work; for t1/2: clinical half-life; for Cmax: maximum plasma concentration, clinical dosing: crizotinib 250 mg twice a day, gefitinib 250 mg, imatinib 400 mg, pazopanib 800 mg, sorafenib 400 mg, sunitinib 50 mg once a day; for Ctrough: trough plasma concentration, clinical dosing as in table footnote.

On the set-up of data set [3]: method as in earlier work. To be noted: unbound fraction in plasma; 34-43 (per drug); cited from earlier work.
The subject of another data set is creatinine transporters. The note with it: cited from earlier work.
The next data set deals with T2, MATE2K (Homo sapiens, UniProt Q86VL8).
T2 construct: expressed in transfected cells; host or cells: HEK293
In words: Uptake of MPP+ by HEK293/MATE2K and mock cells. It is filed as cell-based. Here is the method: The uptake experiment was conducted as described previously. HEK293 cells were plated at a density of 1.7 × 10^5 cells/cm^2 on 24-well plates and cultured for two days before uptake assay. The cells were pre-incubated with 0.5 ml of transport medium (TM) (125 mM NaCl, 4.8 mM KCl, 1.2 mM KH2PO4, 1.2 mM CaCl2, 1.2 mM MgSO4, 5.6 mM D-glucose, and 25 mM HEPES, pH 7.4) for an appropriate time at 37 °C. Cells for MATE1 assays were pre-incubated in TM containing 30 mM NH4Cl for 20 min to establish an outwardly directed H^+ gradient; this was done concomitantly with the pre-incubation with TKIs. […] Uptake was terminated by washing the cells three times with 0.5 ml of ice-cold TM, and the cells were solubilized in 0.25 ml of 0.01% (v/v) Triton-X. Radioactivity was measured with a liquid scintillation counter (Hitachi Aloka Medical, Ltd., Tokyo, Japan). […] Uptake was terminated by washing the cells three times with ice-cold TM, and intracellular [^14C]creatinine concentration was determined by the method described above.
Experiments were conducted at least twice, and the results are shown as representative values in individual experiments. Uptake by transporter-expressing cells was expressed as the cell-to-medium (C/M) ratio (μL/mg protein), obtained by dividing the uptake amount by the concentration of substrate in the TM. […]

A short description of data set [4]: Clinical plasma pharmacokinetic parameters of TKIs. The note with it: for Cmax,u: calculated unbound plasma concentration (Cmax x fu) from cited clinical parameters; for Ctrough,u: calculated unbound trough plasma concentration from cited clinical parameters. It is filed as in vivo, human. The source says: Table 2 Pharmacokinetic parameters and obtained IC50, Ki, and Kp,uu values of TKIs. | column: Cmax,u (μM) Ctrough,u (μM)

The conditions of data set [5]: patients treated with crizotinib, n = 38, 95% CI 21.3–[…]; cited from earlier work.
The target in the next data set is T3, human MATE1 (Homo sapiens, UniProt Q96FL8).
T3 construct: expressed in transfected cells; host or cells: HEK293
T3 sequence (Q96FL8 1-570): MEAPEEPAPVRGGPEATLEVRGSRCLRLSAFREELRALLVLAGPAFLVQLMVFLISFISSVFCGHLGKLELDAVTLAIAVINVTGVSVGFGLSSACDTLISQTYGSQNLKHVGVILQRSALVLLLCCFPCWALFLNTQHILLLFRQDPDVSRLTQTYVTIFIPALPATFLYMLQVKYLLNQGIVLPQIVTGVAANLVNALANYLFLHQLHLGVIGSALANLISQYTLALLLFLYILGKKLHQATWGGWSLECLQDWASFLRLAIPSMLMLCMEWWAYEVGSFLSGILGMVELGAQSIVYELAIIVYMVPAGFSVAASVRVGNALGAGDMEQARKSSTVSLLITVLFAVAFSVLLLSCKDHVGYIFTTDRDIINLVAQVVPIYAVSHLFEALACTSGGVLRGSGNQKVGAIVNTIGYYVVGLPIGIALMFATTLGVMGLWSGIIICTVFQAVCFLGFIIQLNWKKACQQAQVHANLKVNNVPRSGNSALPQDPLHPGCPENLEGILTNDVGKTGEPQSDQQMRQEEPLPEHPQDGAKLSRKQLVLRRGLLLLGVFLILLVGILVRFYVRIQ
In words: Inhibition of [14C]creatinine uptake by HEK293/MATE1 cells. In kind it is cell-based.

The structures appear in SMILES notation. Like-named read-outs stand apart in the source and are kept apart here.

T2 sequence (Q86VL8 1-566 isoform Q86VL8-3): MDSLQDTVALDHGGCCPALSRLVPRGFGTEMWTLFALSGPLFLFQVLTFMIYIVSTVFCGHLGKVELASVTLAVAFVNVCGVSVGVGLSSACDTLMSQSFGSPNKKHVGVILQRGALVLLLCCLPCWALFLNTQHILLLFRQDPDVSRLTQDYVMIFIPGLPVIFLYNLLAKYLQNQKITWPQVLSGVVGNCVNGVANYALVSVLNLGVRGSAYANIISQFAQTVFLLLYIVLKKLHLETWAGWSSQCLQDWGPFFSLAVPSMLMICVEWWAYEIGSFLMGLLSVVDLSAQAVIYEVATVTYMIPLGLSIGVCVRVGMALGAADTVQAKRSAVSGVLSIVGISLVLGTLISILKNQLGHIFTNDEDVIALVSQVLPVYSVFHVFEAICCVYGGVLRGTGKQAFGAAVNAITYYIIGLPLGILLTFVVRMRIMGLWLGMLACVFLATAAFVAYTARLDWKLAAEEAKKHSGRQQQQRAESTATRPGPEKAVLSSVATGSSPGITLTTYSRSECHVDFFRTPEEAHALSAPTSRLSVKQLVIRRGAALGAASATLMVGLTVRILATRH
Procedure for human MATE1: (§1) Cells were cultured in Dulbecco’s modified Eagle’s medium (DMEM) supplemented with 10% fetal bovine serum, 100 units/ml penicillin, 100 μg/ml streptomycin, 1 mM pyruvic acid, and 100 μg/ml zeocin for HEK293/OCT2 cells or 400 μg/mL G418 for HEK293/MATE1 and MDCKII/MATE1 cells at 37 °C in a humidified atmosphere of 5% CO2 in air.
The cells were incubated at 37 °C.
Uptake by transporter-expressing cells was expressed as the cell-to-medium (C/M) ratio (μL/mg protein), obtained by dividing the uptake amount by the concentration of substrate in the TM. MATE1- or OCT2-mediated uptake was obtained after subtraction of the uptake by mock cells.
Kinetic parameters for uptake were obtained using the Michaelis-Menten Eq. (2);2 v=Vmax×[C]/Km+[C] where v, Vmax, Km, and [C] are initial uptake rate, maximal uptake rate, Michaelis constant, and substrate concentration, respectively.
Procedure for human OCT2: as §1
The cells were incubated at 37 °C.
Experiments were conducted at least twice, and the results are shown as representative values in individual experiments. Uptake by transporter-expressing cells was expressed as the cell-to-medium (C/M) ratio (μL/mg protein), obtained by dividing the uptake amount by the concentration of substrate in the TM. MATE1- or OCT2-mediated uptake was obtained after subtraction of the uptake by mock cells.

On to `Cc1ccc(NC(=O)c2ccc(CN3CCN(C)CC3)cc2)cc1Nc1nccc(-c2cccnc2)n1` [Imatinib, imatinib], for which the Kp uu at 2 h, 1 μM in [1] was 2.39 ± 0.29.

On to `CNC(=O)c1cc(Oc2ccc(NC(=O)Nc3ccc(Cl)c(C(F)(F)F)c3)cc2)ccn1` [Sorafenib, sorafenib], for which, in the data set with OCT2 and MATE1, the “Prediction of SCr increase, Cmax,u” value is on record as 1.47 ± 0.90% and the “Prediction of SCr increase, Cmax,u · Kp,uu” value is reported as 3.10 ± 1.17%. Further, at human OCT2 ([14C]creatinine 2.6 μM, 1 min), the IC50 (usually the concentration that gives 50% inhibition) was found to be 40.8 ± 9.3 µM. Besides, in data set [2], the t1/2 was 28.1 h and the Cmax – broadly, the highest concentration seen after dosing – was 14600 nM. Besides, in [1], the Kp uu at 2 h, 1 μM was 2.76 ± 0.27. Besides, the fu in data set [3] is on record as 0.0029.

Turning to `COc1c(N2CC[C@@H](C3(N)CC3)C2)ccc2c(=O)c(C(=O)O)cn([C@@H]3C[C@@H]3F)c12` [DX-619], the “Reduction of creatinine clearance” value in the data set with creatinine transporters is reported as “up to 51.4%”.

`CC(=O)[O-].C[n+]1ccc(-c2ccccc2)cc1` [MPP^+, N-methyl-4-phenylpyridinium acetate]: the “Uptake of MPP+ by HEK293/MATE2K cells” value at MATE2K (HEK293/MATE2K cells) was found to be 19.1 μL/mg/1 min. The “Uptake of MPP+ by mock cells” value at MATE2K (mock cells) came out at 5.76 μL/mg/1 min.

Regarding `CCN(CC)CCNC(=O)c1c(C)[nH]c(/C=C2\C(=O)Nc3ccc(F)cc32)c1C` [Sunitinib, sunitinib], in the data set on OCT2 and MATE1, the “Prediction of SCr increase, Cmax,u” value is listed as 1.65 ± 0.92%; the “Prediction of SCr increase, Cmax,u · Kp,uu” value was 2.73 ± 1.10%; the “Prediction of SCr increase, Ctrough,u” value is 1.19 ± 0.87%; the “Prediction of SCr increase, Ctrough,u · Kp,uu” value is recorded as 1.86 ± 0.95%. On human OCT2 ([14C]creatinine 2.6 μM, 1 min), the IC50 came to 0.266 ± 0.03 µM. Further, in [4], the “Cmax,u” value is 6.8 nM and the “Ctrough,u” value was 4.14 nM. In [2], the t1/2 is 40 to 60 h, the Cmax is 136 nM and the Ctrough is 82.9 nM. Besides, the Kp uu at 2 h, 1 μM in data set [1] amounted to 3.93 ± 0.15.

Take `C[C@@H](Oc1cc(-c2cnn(C3CCNCC3)c2)cnc1N)c1c(Cl)ccc(F)c1Cl` [Crizotinib, crizotinib]: in the data set with OCT2 and MATE1, the “Prediction of SCr increase, Cmax,u” value is 14.5 ± 4.6%; the “Prediction of SCr increase, Cmax,u · Kp,uu” value was 25.3 ± 8.8%; the “Prediction of SCr increase, Ctrough,u” value is reported as 11.7 ± 3.6%; the “Prediction of SCr increase, Ctrough,u · Kp,uu” value is on record as 21.1 ± 7.1%. In the data set with OCT2 and MATE1 (listed as crizotinib), the “Prediction of SCr increase, Cmax,u” value is 14.5% and the “Prediction of SCr increase, Cmax,u · Kp,uu” value is 25.3%. The “Predicted increase of SCr in the clinical context” value with OCT2 and MATE1 (summary statement of the prediction) is “more than 10%”. For the same compound, the “Clinically reported eGFR reduction” value in data set [5] is 23.9%. For the same compound, in [4], the “Cmax,u” value is 84.8 nM and the “Ctrough,u” value is 65.8 nM. In addition, in [2], the Ctrough was 708 nM. In addition, the fu in [3] was 0.093.

As to `Cc1ccc(Nc2nccc(N(C)c3ccc4c(C)n(C)nc4c3)n2)cc1S(N)(=O)=O` [Pazopanib, pazopanib], at human MATE1 ([14C]creatinine 2.6 μM, 2 min, 37 °C, pre/co-incubation, unit inferred, read-out: IC50 or Ki, MATE1), the IC50 amounted to 0.47 ± 0.032 µM. Besides, on human MATE1 (ratio of trough (unbound) concentration to IC50 or Ki for MATE1), the “Ctrough/IC50 or Ki, MATE1” value was determined as 0.0114. In the data set with OCT2 and MATE1, the “Prediction of SCr increase, Cmax,u” value was 1.16 ± 0.87%; the “Prediction of SCr increase, Cmax,u · Kp,uu” value is 1.86 ± 0.95%; the “Prediction of SCr increase, Ctrough,u” value was 0.837 ± 0.842%; the “Prediction of SCr increase, Ctrough,u · Kp,uu” value is recorded as 1.22 ± 0.87%. In addition, on human OCT2 (pazopanib 1, 3, 10, 30 μM, [14C]creatinine 2.6 μM, 1 min), the “Inhibition of [14C]creatinine uptake by HEK293/OCT2 cells (in words)” value is “not by pazopanib”. In addition, the “Ctrough/IC50 or Ki, OCT2” value at human OCT2 (ratio of trough (unbound) concentration to IC50 or Ki for OCT2) is given as 0.0000386. In addition, the “Cmax,u” value in data set [4] was 10.1 nM. Moreover, in data set [2], the t1/2 was 30.9 h, the Cmax was 95100 nM and the Ctrough is 50600 nM. The Kp uu at 2 h, 1 μM in data set [1] amounted to 2.05 ± 0.14. Further, the fu in data set [3] is given as 0.000106.

`COc1cc2ncnc(Nc3ccc(F)c(Cl)c3)c2cc1OCCCN1CCOCC1` [Gefitinib, gefitinib]: the “Prediction of SCr increase, Cmax,u” value in the data set with OCT2 and MATE1 is recorded as 2.47 ± 1.05%. Further, in [4], the “Cmax,u” value is 93.6 nM. Further, in data set [2], the t1/2 is 23.8 h and the Cmax is 1040 nM. The Kp uu at 2 h, 1 μM in [1] was found to be 2.22 ± 0.05. Further, the fu in data set [3] is given as 0.09.

The values are drawn from article PMC6006426, “Effect of tyrosine kinase inhibitors on renal handling of creatinine by MATE1” (Scientific Reports, 2018).
